Measured values taken from patent publication US6541492B1, “Thiazole derivatives as PPAR gamma ligands” (SmithKline Beecham Corporation, priority 1999, dated 2003).

Legend:
[1] = test system: C3H10T1/2 clone 8 murine fibroblasts; test: Osteoblast differentiation assay (alkaline phosphatase activity); assay type: cell-based
Description: C3H10T1/2 clone 8 murine fibroblasts (American Type Culture Collection) below passage 22 were maintained in Dulbecco's modified Eagle's medium (Life Technologies, Inc.) supplemented with 10% fetal calf serum and 100 units/mL penicillin G and 100 microgram/mL streptomycin. One day after passage into 96-well microtiter plates (12.5×10^3 cells/cm^2), the cells were treated with 625 nanomolar all-trans retinoic acid, 1 micromolar rosiglitazone and 1 micromolar insulin (Sigma, St. Louis, Mo.). Vehicle or test compounds, which had been solublized to 10 mM in DMSO and then serially diluted from 2e-5 M to 4e-8 M into medium, were added. After 7 days, alkaline phosphatase activity, a surrogate measure for osteogenesis, was determined using Sigma-Fast pNPP substrate (N-2770) according to the manufacturer's specifications (Sigma, St. Louis, Mo.) (see Paulik, M. A. and Lenhard, J. M., Cell Tissue Res., (1997), Vol. 290, pp 79-87). The substrate (50 microliters/well) was incubated with the cells at 37° C. for 10 min and the absorbance read at 405 nm. The % maximum stimulation of alkaline phosphatase activity was calculated relative to cells treated with 10 micromolar all-trans retinoic acid.

C57BL/KsJ db/db mice = test: In vivo assay in db/db mice; settings: male db/db mice, 50 mg/kg oral once daily, mean ± standard error
Description: Age and weight matched male C57BL/KsJ db/db mice (Jackson Labs, Bar Harbor, Me.) were housed 5 animals/cage at 72° F. and 50% relative humidity with a 12 h light and dark cycle, and fed chow diet (NIH R&M/Auto 6F-Ovals 5K67, PMI Feeds® Inc., Richmond, Ind.). Animals starting at 6 weeks of age were orally gavaged once daily (8:00-9:00 AM) with TPGS/PG (25/75) or 50 mg/kg the compound of Example 4 in TPGS/PG (25/75). After 2 weeks of dosing, the animals were anesthetized with isofluorane, blood was drawn by cardiac puncture, and non-fasting measurements of glucose, insulin, and glycosylated hemoglobin (GHB) were obtained. Blood glucose was determined using an automated chemistry analyzer (Technicon Axon). GHB measurements were performed using a Columnmate Analyzer (Helena Instrument). Insulin concentrations in serum were measured by chemiluminescence using an Origen Analyzer (Igen Inc.). Body weights were recorded at the beginning and end of the study. All data was calculated as the mean and standard error from experiments performed on ≧9 animals per treatment group.

% Stimulation ([1]; % maximum stimulation of alkaline phosphatase activity relative to cells treated with 10 micromolar all-trans retinoic acid): 71%
pEC50 ([1]; alkaline phosphatase activity after 7 days, with 625 nanomolar all-trans retinoic acid, 1 micromolar rosiglitazone, 1 micromolar insulin): 5.7
Compound: CCCCCC[C@@H]1S[C@@H](CC(=O)N(CCCC)CCCC)C(=O)N1CCCCc1ccc(C(=O)O)cc1 (relative stereo) [Example 4, (2S*,5S*)-4-(4-(4-Carboxyphenyl)butyl)-2-hexyl-4-oxo-5-thiazolidine N,N-Dibutylacetamide]
GBH (C57BL/KsJ db/db mice; glycosylated hemoglobin, 2 weeks): 6.6 ± 0.3%
Glucose (C57BL/KsJ db/db mice; 2 weeks, non-fasting blood): 380 ± 30 mg/dL
Body Weight Change (C57BL/KsJ db/db mice; beginning to end of 2 week study): 1.1 ± 0.5 g
